Results from patent publication US8324390B2, “Tetrazole-substituted anthranilamides as pesticides” (Bayer CropScience AG, priority 2008, dated 2012).
Like-named read-outs stand apart in the source and are kept apart here.

Experiments:
[1] = log P determination by HPLC (EEC Directive 79/831 Annex V.A8); assay type: physicochemical
Protocol: The measurements were carried out using an Agilent 1100 LC system with a 50*4.6 Zorbax Eclipse C18 1.8 μm column (oven temperature 55° C., flow rate 2.0 ml/min).
The following mobile phases were used:
Mobile phase A: acetonitrile+1000 μl of formic acid/l
Mobile phase B: Millipore water+900 μl of formic acid/l

[2] = tested on: caterpillars of the armyworm (Spodoptera frugiperda); assay: Spodoptera frugiperda test (SPODFR spray treatment); assay type: in vivo; details: Spodoptera frugiperda, foliar, read-out: effect in % (caterpillars killed)
Source text: (§1) Solvent: 78.0 parts by weight of acetone

[3] = tested on: green peach aphid (Myzus persicae); assay: Myzus test (MYZUPE spray treatment); assay type: in vivo; details: Myzus persicae, foliar, read-out: effect in % (aphids killed)
Source text: Solvent: 78 parts by weight of acetone
as §1

[4] = tested on: larvae of the mustard beetle (Phaedon cochleariae); assay: Phaedon test (PHAECO spray treatment); details: Phaedon cochleariae, in Brassica rapa, foliar, read-out: effect in % (beetle larvae killed)
[5] = reversed-phase HPLC, Zorbax Eclipse C18 column, determined by HPLC according to EEC Directive 79/831 Annex V.A8, read-out: log P
[6] = application rate 100 g/ha, maize leaf discs
[7] = application rate 100 g/ha, Chinese cabbage leaf discs
[8] = reversed-phase HPLC, Zorbax Eclipse C18 column, by HPLC according to EEC Directive 79/831 Annex V.A8, read-out: log P

Row | Structure (SMILES) | chromatographic logP [1, 5] | chromatographic logP [1, 8] | pest or weed control at 100 g/ha [2, 6] [%] | pest or weed control at 100 g/ha [3, 7] [%] | pest or weed control at 100 g/ha [4] [%] | chromatographic logP ([1]; log P) | pest or weed control at 100 g/ha ([2]; in Zea mays) [%] | pest or weed control at 100 g/ha ([3]; in Brassica rapa) [%]
1 | CCNC(=O)c1cc(C#N)cc(C)c1NC(=O)c1cc(Cn2nnnc2C(F)(F)C(F)(F)F)nn1-c1ncccc1Br [Example 519] | 2.94 | – | ≥ 80 | ≥ 80 | ≥ 80 | – | – | –
2 | CC(NC(=O)c1cc(Cl)cc(Cl)c1NC(=O)c1cc(Cn2nnnc2C(F)(F)C(F)(F)F)nn1-c1ncccc1Cl)C1CC1 (centres unmarked) [Example 448] | – | – | – | – | ≥ 80 | 3.81 | ≥ 80 | ≥ 80
3 | Cc1cc(Cl)cc(C(=O)NC2CC2)c1NC(=O)c1cc(Cn2nnnc2C(F)(F)C(F)(F)F)nn1-c1ncccc1Br [Example 515] | 3.29 | – | ≥ 80 | ≥ 80 | ≥ 80 | – | – | –
4 | CSC[C@H](C)NC(=O)c1cc(I)cc(C)c1NC(=O)c1cc(Cn2nnc(C(F)(C(F)(F)F)C(F)(F)F)n2)nn1-c1ncccc1Cl [Example 385] | – | 4.63 | ≥ 80 | ≥ 80 | ≥ 80 | – | – | –
5 | Cc1cc(Cl)cc(C(=O)NC(C)(C)C)c1NC(=O)c1cc(Cn2nnnc2C(F)(F)C(F)(F)F)nn1-c1ncccc1Cl [Example 443] | – | – | – | – | ≥ 80 | 3.92 | ≥ 80 | ≥ 80
6 | Cc1cc(C#N)cc(C(=O)NC(C)C)c1NC(=O)c1cc(Cn2nnnc2C(F)(C(F)(F)F)C(F)(F)F)nn1-c1ncccc1Cl [Example 500] | 3.5 | – | ≥ 80 | ≥ 80 | ≥ 80 | – | – | –
7 | CNC(=O)c1cc(C#N)cc(C)c1NC(=O)c1cc(Cn2nnc(C(F)(C(F)(F)F)C(F)(F)F)n2)nn1-c1ncccc1Cl [Example 367] | – | – | – | – | ≥ 80 | 3.35 | ≥ 80 | ≥ 80
8 | Cc1cc(C#N)cc(C(=O)NC(C)(C)C)c1NC(=O)c1cc(Cn2nnnc2C(F)(F)C(F)(F)F)nn1-c1ncccc1Br [Example 518] | 3.47 | – | ≥ 80 | ≥ 80 | ≥ 80 | – | – | –
9 | Cc1cc(Cl)cc(C(N)=O)c1NC(=O)c1cc(Cn2nnc(C(F)(F)F)n2)nn1-c1ncccc1C(F)(F)F [Example 238] | – | 2.97 | ≥ 80 | ≥ 80 | ≥ 80 | – | – | –
10 | CNC(=O)c1cc(I)cc(C)c1NC(=O)c1cc(Cn2nnnc2C(F)(F)F)nn1-c1ncccc1C(F)(F)F [Example 452] | 3.07 | – | ≥ 80 | ≥ 80 | ≥ 80 | – | – | –
11 | Cc1cc(C#N)cc(C(N)=O)c1NC(=O)c1cc(Cn2nnc(C(F)(C(F)(F)F)C(F)(F)F)n2)nn1-c1ncccc1Cl [Example 372] | – | – | – | – | ≥ 80 | 3.13 | ≥ 80 | ≥ 80

Continued, in another order:

Row | chromatographic logP [1, 5] | chromatographic logP [1, 8] | Structure (SMILES) | pest or weed control at 100 g/ha [2, 6] [%] | pest or weed control at 100 g/ha [3, 7] [%] | pest or weed control at 100 g/ha [4] [%] | chromatographic logP ([1]; log P) | pest or weed control at 100 g/ha ([2]; in Zea mays) [%] | pest or weed control at 100 g/ha ([3]; in Brassica rapa) [%]
12 | – | 3.36 | CCNC(=O)c1cc(C#N)cc(C)c1NC(=O)c1cc(Cn2nnc(C(F)(F)F)n2)nn1-c1ccccc1Cl [Example 342] | ≥ 80 | ≥ 80 | ≥ 80 | – | – | –
13 | 3.16 | – | Cc1cc(I)cc(C(=O)NCC#N)c1NC(=O)c1cc(Cn2nnc(C(F)(F)F)n2)nn1-c1ncccc1Br [Example 412] | ≥ 80 | ≥ 80 | ≥ 80 | – | – | –
14 | 3.78 | – | Cc1cc(C#N)cc(C(=O)NC(C)(C)C)c1NC(=O)c1cc(Cn2nnc(C(F)(F)C(F)(F)F)n2)nn1-c1ncccc1Br [Example 425] | ≥ 80 | ≥ 80 | ≥ 80 | – | – | –
15 | 2.72 | – | CNC(=O)c1cc(C#N)cc(C)c1NC(=O)c1cc(Cn2nnnc2C(F)(F)C(F)(F)F)nn1-c1ncccc1Br [Example 516] | ≥ 80 | ≥ 80 | ≥ 80 | – | – | –
16 | 3.87 | – | CCNC(=O)c1cc(C#N)cc(C)c1NC(=O)c1cc(Cn2nnc(C(F)(F)C(F)(F)F)n2)nn1-c1ccccc1Cl [Example 532] | ≥ 80 | ≥ 80 | ≥ 80 | – | – | –
17 | – | 2.92 | CNC(=O)c1cc(C#N)cc(C)c1NC(=O)c1cc(Cn2nnc(C(F)(F)F)n2)nn1-c1ccccc1F [Example 318] | ≥ 80 | ≥ 80 | ≥ 80 | – | – | –
